This is an account of results in US3965257A, “Compositions and methods for the treatment of the symptoms of histamine induced allergic reactions” (Richardson-Merrell Inc., priority 1974, dated 1976).

Assay [1] concerns aerosol antigen induced bronchial spasms and death. In words: prevention of aerosol antigen induced bronchial spasms and death in the guinea pig. In kind it is in vivo. The conditions noted are these: Cavia porcellus, po, orally, read-out: minimal amount required to prevent aerosol antigen induced bronchial spasms and death. An excerpt:
The minimal amounts of the compounds of Examples 4,5,6 and 9 required to prevent aerosol antigen induced bronchial spasms and death in the quinea pig are respectively 1.0, 4.0, 1.0 and 4.0 milligrams per kilogram of body weight orally.

Assay [2] relates to wheals induced by intradermal injections of histamine. Put plainly: reduction by 50% of wheals induced by intradermal injections of histamine into guinea pigs. The conditions noted are these: Cavia porcellus, po, 1 h, orally administered one hour prior to the histamine injection, read-out: ED50 (amount required to reduce by 50% wheals induced by intradermal injections of histamine). It is filed as in vivo, guinea pig.

Take `Cl.O=C(CCCN1CCC(C(O)(c2ccccc2)c2ccccc2)CC1)c1cccs1` [Example 4, 4-[4-(α -Hydroxy-α -phenylbenzyl)piperidino] -1-(2-thienyl)-butan-1-one hydrochloride]: the minimal effective dose in assay [1] is 1 mg/kg. The ED50 – broadly, the dose at which the effect has come halfway, by size or by number of responders – in assay [2] was determined as 3.1 mg/kg.
`Cc1ccc(C(=O)CCCN2CCC(C(O)(c3ccccc3)c3ccccc3)CC2)cc1.Cl` [Example 5, 4-[4-(α-Hydroxy-α-phenylbenzyl)piperidino] -4'-methylbutyrophenone hydrochloride]: the minimal effective dose in assay [1] is 4 mg/kg. Further, in assay [2], the 50% effective dose (ED50) stood at 1.9 mg/kg.
Consider `CC(C)(C)c1ccc(C(=O)CCCN2CCC(C(O)(c3ccccc3)c3ccccc3)CC2)cc1.Cl` [Example 6, 4'-tert-Butyl-4-[4-(α-hydroxy-α-phenylbenzyl)piperidino] butyrophenone hydrochloride], for which the minimal effective dose in assay [1] was found to be 1 mg/kg. Moreover, in assay [2], the ED50 turned out to be 1.8 mg/kg.
`O=C(CCCN1CCC(C(O)(c2ccccc2)c2ccccc2)CC1)c1ccc(N2CCCCC2)cc1` [Example 9, 4-[4-(α-Hydroxy-α-phenylbenzyl)piperidino]-4'-piperidinobutyrophenone]: the minimal effective dose in assay [1] was determined as 4 mg/kg. For the same compound, the ED50 in assay [2] was 3.4 mg/kg.
